The record followed here is patent publication US9302996B2, “Continuous arycyclic compound” (MITSUBISHI TANABE PHARMA CORPORATION, priority 2010, dated 2016).

Read-outs that look alike come from different tables or passages of the source. Marks after values point to notes of the source that are not given here.

What all share (format): in vivo
For one assay, the system named is ICR mice. Nature of the assay: Triglyceride (TG) in blood plasma increase-inhibiting action due to lipid administration. The following applies: Mus musculus; male ICR mice, 5 mg/kg oral, lipid (Intralipos 20%) after 30 minutes, plasma TG 2 hours after lipid; read-out: Inhibiting rate of TG-increase in blood plasma (5 mg/kg). The protocol: 6 to 9 weeks-old male ICR mice were fasted overnight, and Test compound suspended in 0.2% carboxymethyl cellulose solution was orally administered to the mice. A lipid (Intralipos 20%, OTSUKA PHARMACEUTICAL CO., LTD., 10 mL/kg) was orally administered after 30 minutes. Blood was collected from tail vein immediately before the lipid administration, and after 2 hours from the same to obtain blood plasma. Measurement of TG in blood plasma was carried out by using a triglyceride E Test Wako (Wako Pure Chemical Industries, Ltd.), and an increased value of TG in blood plasma by administration of the lipid was calculated. An increased value of TG in blood plasma in a solvent control group was used as a control, and an inhibiting rate in increase of TG in blood plasma in the Test compound administered group was calculated.

The next assay has as its system C57BL/6J mice. Nature of the assay: Antifeeding activity (high fat diet intake up to 4 hours). To be noted: Mus musculus, male C57BL/6J mice, 5 mg/kg oral, food ingested up to 4 hours, read-out: Antifeeding rate (5 mg/kg). The protocol:
7 to 10 weeks-old male C57BL/6J mice were fasted overnight, and the test compound suspended in 0.2% carboxymethylcellulose solution was orally administered. Immediately after the administration, high fat diet (Oriental Yeast Co., Ltd, 60 cal % fat) was provided and freely fed. An amount of food ingested up to 4 hours was measured, and a lowering rate (an antifeeding rate) of the amount of food ingested in the Test compound administered group was calculated as compared to that of the solvent control group as a control.

Another assay has as its system KK-Ay mice. The experiment in a line: Weight gain-inhibiting action, hypoglycemic effect, insulin in blood plasma lowering action in KK-Ay mice. To be noted: male KK-Ay mice, high fat diet, 2 weeks; for inhibition in vivo at 30 mg/kg: Mus musculus, 336 h, 30 mg/kg/day oral. The method, then:
To 8 weeks-old male KK-Ay mice were provided high fat diet (Oriental Yeast Co., Ltd, 60 cal % fat), and Test compound suspended in 0.2% carboxymethylcellulose solution was orally administered once a day. Oral administration was continued for 2 weeks, and a weight gain-inhibiting rate of the Test compound was calculated by using a weight gain amount of the solvent control group during the test period as 100%. After final administration, the mice were fasted overnight, and blood was collected from tail vein. Measurement of a blood-sugar level was carried out by using glucose Cα Test Wako (Wako Pure Chemical Industries, Ltd.), and measurement of insulin in blood plasma was carried out by using a mouse insulin measurement kit (Morinaga Institute of Biological Science, Inc.).

The mark [1] stands for this setting: read-out: Hypoglycemic action (30 mg/kg/day).
Setting [2] is: read-out: Insulin in blood plasma-lowering action (30 mg/kg/day).
The mark [3] stands for this setting: read-out: Weight gain-inhibiting action (30 mg/kg/day).
[4] abbreviates: administration dose of 10 mg/kg/day oral.

Regarding `Cc1cc(OCC(C)(C)C(=O)O)ncc1-c1ccc(-c2ncc(C3(C(F)(F)F)CC3)[nH]2)cc1` [Example 39], the inhibition in vivo at 5 mg/kg in the assay with ICR mice was found to be 54%; with C57BL/6J mice it was 76%. In addition, the results for the inhibition in vivo at 30 mg/kg with KK-Ay mice (setting [1]), in the assay on KK-Ay mice (setting [2]) and with KK-Ay mice (setting [3]) were 44%, 50% and 38%, respectively.

Consider `Cc1cc(OCC(C)(C)C(=O)O)ncc1-c1ccc(-c2ncc(CC(C)C)[nH]2)nc1` [Example 117], for which the inhibition in vivo at 5 mg/kg worked out at 57% in the assay with ICR mice and 55% in the assay with C57BL/6J mice. Further, the inhibition in vivo at 30 mg/kg in the assay on KK-Ay mice (setting [1]) is 36%; in the assay with KK-Ay mice (setting [2]), 35%; in the assay on KK-Ay mice (setting [3]), 31%.

For the molecule `Cc1cc(OCC(C)(C)C(=O)O)ncc1-c1ccc(-c2ncc(C(F)(F)F)[nH]2)cc1` [Example 73], the values for the inhibition in vivo at 5 mg/kg in the assay on ICR mice and with C57BL/6J mice were 88% and 82%, respectively. The values for the inhibition in vivo at 30 mg/kg in the assay on KK-Ay mice (setting [1]), in the assay with KK-Ay mice (setting [2]) and in the assay on KK-Ay mice (setting [3]) were 40%, 69% and 62%, respectively.

For the molecule `CC(C)(COc1ccc(-c2ccc(-c3ncc(C(F)(F)F)[nH]3)nn2)cc1)C(=O)O` [Example 87-7), 2,2-dimethyl-3-(4-{6-[4-(trifluoromethyl)-1H-imidazol-2-yl]pyridazin-3-yl}phenoxy)-propanoic acid], the results for the inhibition in vivo at 5 mg/kg in the assay with ICR mice and in the assay on C57BL/6J mice were 57% and 59%, respectively. The inhibition in vivo at 30 mg/kg with KK-Ay mice (setting [1]) was 35%; with KK-Ay mice (setting [2]), 19%; in the assay on KK-Ay mice (setting [3]), 22%.

For the molecule `Cc1cc(OCC(C)(C)C(=O)O)ncc1-c1ccc(-c2ncc(CC3CC3)[nH]2)c(F)c1` [Example 96-2), 3-[(5-{4-[5-(cyclopropylmethyl)-1H-imidazol-2-yl]-3-fluorophenyl}-4-methylpyridin-2-yl)oxy]-2,2-dimethylpropanoic acid], the inhibition in vivo at 5 mg/kg in the assay on ICR mice was determined as 48%; in the assay with C57BL/6J mice, 58%. The inhibition in vivo at 30 mg/kg is 66% with KK-Ay mice (setting [1]), 71% in the assay on KK-Ay mice (setting [2]) and 75% in the assay with KK-Ay mice (setting [3]).

Regarding `CCC(CC)(COc1ccc(-c2ccc(-c3ncc(C(F)(F)F)[nH]3)cn2)cn1)C(=O)O` [Example 22], the inhibition in vivo at 5 mg/kg was determined as 76% in the assay on ICR mice and 69% in the assay on C57BL/6J mice. Besides, the values for the inhibition in vivo at 30 mg/kg in the assay with KK-Ay mice (setting [1]), in the assay with KK-Ay mice (setting [2]) and in the assay with KK-Ay mice (setting [3]) were 40%, 47% and 30%, respectively.

Consider `CC(C)(COc1ccc(-c2ccc(-c3ncc(C(F)(F)C(F)(F)F)[nH]3)cn2)cc1)C(=O)O` [Example 69], for which the inhibition in vivo at 5 mg/kg with ICR mice is 85%. Moreover, the inhibition in vivo at 5 mg/kg with C57BL/6J mice amounted to 87%. Further, in the assay with KK-Ay mice (setting [4]), the Hypoglycemic action was 61%^#, the “Insulin in blood plasma-lowering action” value was 37%^# and the Weight gain-inhibiting action amounted to 43%^#.

As for `CC(C)(COc1ccc(-c2ccc(-c3ncc(C(F)(F)F)[nH]3)cc2)cn1)C(=O)O` [Example 3-3), 2,2-dimethyl-3-[(5-{4-[5-(trifluoromethyl)-1H-imidazol-2-yl]phenyl}pyridin-2-yl)oxy]propanoic acid], the values for the inhibition in vivo at 5 mg/kg in the assay with ICR mice and in the assay on C57BL/6J mice were 78% and 76%, respectively. Further, the inhibition in vivo at 30 mg/kg with KK-Ay mice (setting [1]) is 41%; with KK-Ay mice (setting [2]) it was 51%; in the assay with KK-Ay mice (setting [3]) it was 52%.

As for `Cc1cc(OCC(C)(C)C(=O)O)ncc1-c1cnc(-c2ncc(C(F)(F)F)[nH]2)c(C)c1` [Example 114], the inhibition in vivo at 5 mg/kg was determined as 64% with ICR mice and 59% in the assay on C57BL/6J mice. Also, the inhibition in vivo at 30 mg/kg with KK-Ay mice (setting [1]) came out at 48%; in the assay on KK-Ay mice (setting [2]), 60%; with KK-Ay mice (setting [3]) it was 45%.

Regarding `Cc1cc(OCC(C)(C)C(=O)O)ncc1-c1ccc(-c2ncc(C(F)(F)F)[nH]2)nc1` [Example 61-3), 2,2-dimethyl-3-({4-methyl-6′-[5-(trifluoromethyl)-1H-imidazol-2-yl]-3,3′-bipyridin-6-yl}oxy)propanoic acid], the results for the inhibition in vivo at 5 mg/kg in the assay on ICR mice and with C57BL/6J mice were 68% and 80%, respectively. Further, the values for the inhibition in vivo at 30 mg/kg in the assay with KK-Ay mice (setting [1]), in the assay with KK-Ay mice (setting [2]) and in the assay on KK-Ay mice (setting [3]) were 60%, 77% and 90%, respectively.

For the molecule `CC(C)(COc1ccc(-c2ccc(-c3ncc(C(F)(F)F)[nH]3)nc2)cn1)C(=O)O` [Example 66], the inhibition in vivo at 5 mg/kg in the assay with ICR mice came out at 83%; with C57BL/6J mice, 76%. The inhibition in vivo at 30 mg/kg in the assay with KK-Ay mice (setting [1]) was 10%; in the assay on KK-Ay mice (setting [2]), 38%; in the assay with KK-Ay mice (setting [3]) it was 46%.

As for `CC(C)(COc1ccc(-c2ccc(-c3ncc(C4CC(F)(F)C4)[nH]3)cn2)cc1)C(=O)O` [Example 33], the inhibition in vivo at 5 mg/kg was 54% in the assay on ICR mice and 44% in the assay with C57BL/6J mice. Besides, the inhibition in vivo at 30 mg/kg was determined as 42% in the assay with KK-Ay mice (setting [1]), 41% in the assay on KK-Ay mice (setting [2]) and 39% in the assay on KK-Ay mice (setting [3]).

As for `CC(C)(COc1ccc(-c2ccc(-c3ncc(C4(C(F)(F)F)CC4)[nH]3)cn2)cc1)C(=O)O` [Example 6-3), sodium 2,2-dimethyl-3-[4-(5-{5-[1-(trifluoromethyl)cyclopropyl]-1H-imidazol-2-yl]pyridin-2-yl}phenoxy)propanoate], the figures for the inhibition in vivo at 5 mg/kg in the assay with ICR mice and in the assay on C57BL/6J mice were 78% and 71%, respectively. Moreover, the inhibition in vivo at 30 mg/kg in the assay on KK-Ay mice (setting [1]) was 63%; in the assay with KK-Ay mice (setting [2]), 72%.

`CCC(CC)(COc1ccc(-c2ccc(-c3ncc(C(F)(F)F)[nH]3)nc2)cn1)C(=O)O` [Example 23]: the inhibition in vivo at 5 mg/kg in the assay with ICR mice amounted to 85%; in the assay with C57BL/6J mice, 63%. Moreover, the inhibition in vivo at 30 mg/kg was -13% in the assay with KK-Ay mice (setting [1]), 14% with KK-Ay mice (setting [2]) and 39% in the assay with KK-Ay mice (setting [3]).

`Cc1cc(-c2ccc(OCC(C)(C)C(=O)O)cc2)ncc1-c1ncc(C2(C(F)(F)F)CC2)[nH]1` [Example 35-3), 2,2-dimethyl-3-[4-(4-methyl-5-{5-[1-(trifluoromethyl)cyclopropyl]-1H-imidazol-2-yl}pyridin-2-yl)phenoxy]-propanoic acid]: the inhibition in vivo at 5 mg/kg in the assay on ICR mice is 54%; in the assay on C57BL/6J mice, 56%.

Turning to `Cc1cc(OCC(C)(C)C(=O)O)ncc1-c1ccc(-c2ncc(C(F)(F)C(F)(F)F)[nH]2)c(F)c1` [Example 124], the inhibition in vivo at 5 mg/kg in the assay with ICR mice worked out at 98%; in the assay with C57BL/6J mice, 75%.

For the molecule `CC(C)(COc1ccc(-c2ccc(-c3ncc(CC(F)F)[nH]3)cn2)cc1)C(=O)O` [Example 12], the inhibition in vivo at 5 mg/kg in the assay on ICR mice came out at 51%; with C57BL/6J mice it was 40%.

`Cc1cc(-c2ccc(-c3ncc(C(F)(F)F)[nH]3)cn2)ccc1OCC(C)(C)C(=O)O` [Example 8-2), 2,2-dimethyl-3-[2-methyl-4-[5-[5-(trifluoromethyl)-1H-imidazol-2-yl]-2-pyridyl]phenoxy]propanoic acid]: the inhibition in vivo at 5 mg/kg was 46% with ICR mice and 57% in the assay on C57BL/6J mice.

Turning to `COc1cc(OCC(C)(C)C(=O)O)ccc1-c1ccc(-c2ncc(C(F)(F)F)[nH]2)cn1` [Example 86-3), 3-[3-methoxy-4-[5-[5-(trifluoromethyl)-1H-imidazol-2-yl]-2-pyridyl]phenoxy]-2,2-dimethylpropanoic acid], the inhibition in vivo at 5 mg/kg in the assay on ICR mice came to 68%; in the assay with C57BL/6J mice it was 21%.

With `CCCc1cnc(-c2ccc(-c3ccc(OCC(C)(C)C(=O)O)cc3)nc2)[nH]1` [Example 32], the inhibition in vivo at 5 mg/kg is 71% with ICR mice and 42% with C57BL/6J mice.

Consider `CC(C)(COc1ccc(-c2ccc(-c3ncc(CC4CC4)[nH]3)cn2)cc1)C(=O)O` [Example 27], for which the inhibition in vivo at 5 mg/kg with ICR mice amounted to 69%; in the assay with C57BL/6J mice, 66%.

As to `CC(C)(COc1ccc(-c2ccc(-c3ncc(C(C)(C)C(F)(F)F)[nH]3)cn2)cc1)C(=O)O` [Example 2-2), 2,2-dimethyl-3-(4-{5-[5-(2,2,2-trifluoro-1,1-dimethylethyl)-1H-imidazol-2-yl]pyridin-2-yl}phenoxy)propanoic acid], the inhibition in vivo at 5 mg/kg with ICR mice came to 76%; with C57BL/6J mice it was 64%.
